This is an account of results in patent publication US4948782A, “A method of promoting the growth of domestic animals with erythromycin derivative containing composition” (Kitasato Kenkyusho, priority 1987, dated 1990).

The subject of one test is cockerels of broilers. The experiment in a line: Survival rate and growing rate of cockerels of broilers fed the compound in rye-rations for 14 days. The class given is in vivo, cockerels of broilers (Habbard). The following applies: for Gain (Ratio): control = 100.0; for Gain: mean. The protocol: The feeds prepared by adding 0, 1.0, 10.0 and 100.0 ppm of 8,9-anhydroerythromycin A 6,9-hemiketal propargyl chloride respectively to rye-rations, were given to 160 cockerels of broilers (Habbard) of day zero, as 10 cockerels/group×4 repeats/ section, and allowed to be taken freely and continuously for 14 days. The cockerels were positioned to be accommodated for each groups by the Latin square method in an electrically heated battery brooder (the inside thereof is heated at a temperature of 32° C.). The survival rate and the growing rate were measured at 7 and 14 days of age.
Experimental Example 2 was repeated except for changing the administration compound to ethyl-nor-8,9-anhydroerythromycin A 6,9-hemiketal. The result of measuring the survival rate and the growing rate in cockerals of broilers (Habbard) of day zero was shown in Table 8.

The test system of the next test is Clostridium perfringens. Format: in vivo.

Read-outs that look alike come from different tables or passages of the source.

As for `CC[C@H]1OC(=O)[C@H](C)[C@@H](O[C@H]2C[C@@](C)(OC)[C@@H](O)[C@H](C)O2)[C@H](C)[C@@H](O[C@@H]2O[C@H](C)C[C@H](N(C)CC)[C@H]2O)[C@@]2(C)CC(C)=C(O2)[C@H](C)[C@@H](O)[C@]1(C)O` [ethyl-nor-8,9-anhydroerythromycin A 6,9-hemiketal], the Survival rate is on record as 97.5% in the test on cockerels of broilers (1.0 ppm in feed, 0-7 days); 97.5% with cockerels of broilers (1.0 ppm in feed, 0-14 days); 97.5% in the test on cockerels of broilers (10.0 ppm in feed, 0-7 days); 95.0% in the test on cockerels of broilers (10.0 ppm in feed, 0-14 days); 100.0% with cockerels of broilers (100.0 ppm in feed, 0-7 days); 100.0% in the test with cockerels of broilers (100.0 ppm in feed, 0-14 days). Further, the “Gain (Ratio)” value in the test with cockerels of broilers (1.0 ppm in feed, 0-7 days) stood at 103.1; in the test on cockerels of broilers (1.0 ppm in feed, 0-14 days), 106.8; in the test with cockerels of broilers (10.0 ppm in feed, 0-7 days), 98.3; in the test with cockerels of broilers (10.0 ppm in feed, 0-14 days) it was 102.6; in the test with cockerels of broilers (100.0 ppm in feed, 0-7 days) it was 104.3; in the test on cockerels of broilers (100.0 ppm in feed, 0-14 days) it was 105.4. Besides, the Gain with cockerels of broilers (1.0 ppm in feed, 0-7 days) is listed as 85.7 g/cockerel; with cockerels of broilers (1.0 ppm in feed, 0-14 days) it was 263.3 g/cockerel; in the test with cockerels of broilers (10.0 ppm in feed, 0-7 days), 81.7 g/cockerel; in the test on cockerels of broilers (10.0 ppm in feed, 0-14 days), 253.1 g/cockerel; with cockerels of broilers (100.0 ppm in feed, 0-7 days), 86.7 g/cockerel; in the test with cockerels of broilers (100.0 ppm in feed, 0-14 days), 259.8 g/cockerel. Besides, the “Number of Cl. perfringens” value with Clostridium perfringens (1.0 ppm (section 2), day 0) worked out at 7.03 log CFU/g; in the test with Clostridium perfringens (1.0 ppm (section 2), day 7), 7.20 log CFU/g; with Clostridium perfringens (10.0 ppm (section 3), day 0) it was 6.83 log CFU/g; with Clostridium perfringens (10.0 ppm (section 3), day 7), 7.54 log CFU/g; in the test on Clostridium perfringens (100.0 ppm (section 4), day 0) it was 6.59 log CFU/g; with Clostridium perfringens (100.0 ppm (section 4), day 7), 7.17 log CFU/g.
